Source: patent US20040197315A1, “Dopaminergic cell lines stably expressing A53T alpha-synuclein and methods of using same” (priority 2002, published 2004)
Where a SMILES comes first, the peptide text is derived from it. The star is where a group is joined. Cbz = O=C(OCc1ccccc1)*

Experiments:
[1] = molecular target: T1, proteasome (Rattus norvegicus, UniProt P28075); assay: Assay for chymotrypsin-like activity of the proteasome in PC12 cell lysates (LLVY-AFC substrate); assay type: cell-based; settings: cells treated overnight with 0.5 μM inhibitor; lysate assayed with 100 μM LLVY-AFC, 37° C., 10 min
T1 construct: endogenous in cells; host or cells: rat PC12 clonal lines (empty vector, or stably expressing human wild-type or A53T alpha-synuclein)
T1 sequence (P28075 60-263): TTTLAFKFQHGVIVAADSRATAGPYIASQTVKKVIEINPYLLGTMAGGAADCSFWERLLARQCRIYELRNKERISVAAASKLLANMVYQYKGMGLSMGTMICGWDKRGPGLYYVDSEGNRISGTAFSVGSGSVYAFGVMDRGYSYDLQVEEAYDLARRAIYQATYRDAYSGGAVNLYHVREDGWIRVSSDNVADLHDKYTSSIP
Description: Cells from the different lines were triturated off the dish, centrifuged, and washed in PBS. The resulting pellets were resuspended in 200-500 μl of lysis buffer (10 mM Tris-HCl, pH 7.8, with 1 mM ATP, and 10% glycerol) (Figueiredo-Pereira et al., A new inhibitor of the chymotrypsin-like activity of the multicatalytic proteinase complex (20S proteasome) induces accumulation of ubiquitin-protein conjugates in a neuronal cell. J. Neurochem., 63:1578-1581, 1994). The cells were left for 20 min on ice and then lysed with 30 strokes of a Dounce homogenizer. The lysates were then centrifuged at 10,000×g for 10 min. Fifty micrograms of protein of the resulting supernatants was included in an assay buffer of 100 mM Tris-HCl, pH 8.0, 2 mM CaCl2, 1 mM ATP, and a 100 μM concentration of the fluorogenic substrate LLVY-7-amino-4-trifluoromethyl coumarin (AFC) (Enzyme Systems Products, Livermore, Calif.) in a total final volume of 1 ml. The assay was performed at 37° C. for 10 min (Figueiredo-Pereira et al., 1994, supra). The activity was then measured in a SLM 8000 fluorometer, with assay buffer without lysate as blank. The activity was linear with respect to the amount of protein (in the range of 25-200 μg of protein).

[2] = test system: PC12 cell lines expressing A53T mutant α-synuclein; assay: Trypan blue assay of cell death in mutant A53T α-synuclein PC12 lines; assay type: cell-based, rat; settings: 50 μM, data not shown
Description: The day before the trypan blue assay, subconfluent cultures were rinsed twice with complete medium to remove cells at late stages of degeneration. The following day the cells were triturated off the dish and five drops of the cellular suspension were added in a tube together with five drops of Trypan blue solution (0.4%; Sigma-Aldrich, St. Louis, Mo.). After light mixing, the cells were placed on a glass slide, coverslipped, and visualized under 20× magnification. For each line, three fields of 100 cells each were assessed for the percentage of Trypan blue-positive cells. The results reported are the mean±SEM (n=3).
To test for potential involvement of caspases in cellular degeneration associated with expression of A53T α-synuclein, control, wild-type, and mutant lines were examined for basal caspase-3-like activity, as measured by cleavage of the fluorogenic substrate DEVD-AFC (15 μM; Enzyme Systems Products, Livermore, Calif.). No difference was found in basal activity among cell lines (data not shown). […] It can be concluded that PC12 cell lines expressing A53T mutant α-synuclein display enhanced cellular degeneration that appears nonapoptotic by morphological and biochemical criteria.

Compound	chymotrypsin-like proteasomal activity remaining in lysates of treated cells [1] [%]	effect on percentage of Trypan blue-positive cells [2]
CC(C)C[C@@H](C=O)NC(=O)[C@H](CC(C)C)NC(=O)[C@H](CC(C)C)NC(=O)OCc1ccccc1 [MG132] (Cbz-Leu-Leu-Leu-aldehyde)	< 5	
Boc-aspartate-fluoromethyl ketone		did not affect
